The subject of this assay is fat absorption through lipase inhibition in rats. Particulars: rats gavaged with 4 mL olive oil emulsion with drug after 18 hour fast, intestinal contents after 8 hours; for In Vivo Infusion Assay in Rats ED50 (mg/g fat) or estimate: dose at half the maximum recoverable triglyceride; for In Vivo Infusion Assay in Rats Ed50 (mg/kg body wt) or estimate: dose per body weight. As for the experimental part:
Compounds were evaluated in rats to determine their in vivo potency in inhibiting fat absorption through lipase inhibition. Rats were acclimated to the facility for approximately 1 week in individual wire-bottom cages and provided a standard chow diet and water ad libitum. […] Test compounds were dissolved in DMSO or deionized water. Drug solutions were mixed thoroughly in the olive oil emulsion just prior to administration. After 8 hours, rats were euthanized with CO2 and the intestines were removed. The intestinal contents were harvested from the lower half of the small intestine and the cecum. Contents were placed in separate, pre-weighed, 15 milliliter conical screw cap tubes in a (dry ice/alcohol bath) to maintain freezing temperature until the final freeze of all samples. Samples were stored at −80° C. until lyophilization.
Samples were freeze-dried and ground, then analyzed for triglyceride and fatty acid.
A 20 milligram aliquot of each sample was weighed and transferred to a 15 milliliters conical tube. 3 milliliters of hexane were added to each tube, which were capped and vortexed for 15 seconds at high speed. 3 milliliters of 1 N HCl were added and the samples were then subjected to wrist-action shaking for 1 hour. Samples were then centrifuged for 5 minutes at 3500 rpm and the hexane layer was collected. An aliquot of the hexane layer was diluted in hexane and analyzed for triglyceride, diglyceride and fatty acid by HPLC as described above.
The data was expressed as follows. The milligrams of intestinal contents that was extracted and the total number of milligrams collected were recorded. The milligrams/milliliters values obtained from the HPLC analysis were entered. The individual lipid components were calculated and expressed as total milligrams recovered. Dose units are expressed as the milligrams of drug per gram of oil administered to each rat. The ED50's were determined by extrapolating the dose value at half the maximum obtainable triglyceride recoverable in the assay.

Consider five substances from patent US7041280B2, “Aryl boronate functionalized polymers for treating obesity” (Genzyme Corporation, priority 2001, dated 2006).

In the case of “poly(N-diethanolaminopropyl)acrylamide conjugated with 4-(14′-trimethylammonium-3′-thia-1′-ketotetradecyl)-3-fluorophenylboronic acid bromide [Polymer 1]”, the “In Vivo Infusion Assay in Rats ED50 (mg/g fat) or estimate” value is reported as 3 mg/g fat and the “In Vivo Infusion Assay in Rats Ed50 (mg/kg body wt) or estimate” value is on record as 22.5 mg/kg body wt.
On to “poly(N-diethanolaminopropyl)acrylamide conjugated with 4-(14′-trimethylammonium-3′-thia-1′-ketotetradecyl)phenylboronic acid bromide [Polymer 3]”, for which the “In Vivo Infusion Assay in Rats ED50 (mg/g fat) or estimate” value is 20 mg/g fat and the “In Vivo Infusion Assay in Rats Ed50 (mg/kg body wt) or estimate” value is 150 mg/kg body wt.
In the same order, the values of “Poly(N-diethanolaminopropyl)acrylamide conjugated with 4-(14′-hydroxy-3′-thia-1′-ketotetradecyl)phenylboronic acid [Polymer 6]” are 36 mg/g fat and 270 mg/kg body wt.
In the same order, the values of “Poly(N-diethanolaminopropyl)acrylamide conjugated with 4-(14′-hydroxy-3′-thia-1′-ketotetradecyl)-3-fluorophenylboronic acid [Polymer 5]” are 50 mg/g fat and 375 mg/kg body wt.
In the case of “poly(N-diethanolaminopropyl)acrylamide conjugated with 4-(14′-trimethylammonium-3′-thia-1′-ketotetradecyl)-3-fluorophenylboronic acid bromide [Polymer 2]”, the “In Vivo Infusion Assay in Rats ED50 (mg/g fat) or estimate” value was 4.5 mg/g fat and the “In Vivo Infusion Assay in Rats Ed50 (mg/kg body wt) or estimate” value is given as 33.8 mg/kg body wt.
